Experiment [1] deals with Clostridium histolyticum collagenase. Nature of the experiment: Bacterial collagenase-based anti-MMP screening assay (SDS-PAGE gel analysis of undegraded Type I collagen). In kind it is biochemical. As for the experimental part:
Bacterial collagenase-based anti-MMP screening assay: This assay employs purified Clostridium histolyticum collagenase (hereinafter “collagenase”) as the test enzyme for screening anti-MMP activity of compounds of interest. The screening assay involves incubating a constant concentration of collagenase with Type I soluble collagen and quantifying the amount of Type I collagen that remains undegraded in the presence of collagenase in the presence and absence of different test compounds. The basic assay composition comprises 50 μg of Type I collagen (e.g., human placental; Cat. # C7521; Sigma-Aldrich, St. Louis, […]., USA) and 50 μg of collagenase (e.g., Clostridium histolyticum E.C. 3.4.24.3; Cat. No. C7667 (1909 CDU/mg solid); Sigma-Aldrich, St. Louis, […]., USA) in a physiological buffer (pH 7.4) containing zinc ions, with a total reaction volume of 60 μl. […] The buffer composition used comprises […] Tris Base, 200 mM NaCl, 10 mM CaCl2, 0.05 mM ZnCl2, 3 mM NaN3 adjusted to […] with 1 N HCl.
Compounds of interest are added to the reaction system described above to assess their ability to inhibit collagenase degradation of collagen. As test compounds vary with respect to molecular weight and affinity for the dentin matrix, a range of concentrations (wt %) for each compound may be added to the basic reaction. Test compounds may be diluted approximately 1:5 in the final reaction volume by the subsequent sequential addition of solutions containing collagenase, collagen, and buffer.
The enzyme and the collagen are kept on ice. Twenty μL of enzyme (concentration of 5 μg protein/μL×20 μL=100 μg of enzyme) protein was incubated with 5 μL of loading buffer and 20 μL of inhibitor. The reaction was started by adding 20 μL of type I collagen (5 μg/μL×20=100 μg collagen). Thus, the total volume was 65 μL. The total protein was 100 μg enzyme protein plus 100 μg of collagen=200 μg protein in 65 μL. Thirty μL of that mixture was applied to the gel (30/65×200 μg protein=92.3 μg protein. Because the total volume was 65 μL and the inhibitor volume was 20 μL, the inhibitor was diluted 3.25-fold.
Following assembly, reactions are incubated for one hour at 37° C. The incubation reactions were terminated by submerging the tube in boiling water for 3 min. After termination, 30 μL of each reaction assay containing 92 μg of total protein is loaded onto a 7.5% SDS-PAGE polyacrylamide gel (BioRad, Hercules, Calif.) and subjected to electrophoresis at 200 V for 60 min. SDS-PAGE gels are routinely run with samples and various controls in the following order. The nature of the controls is further described below. Controls include collagenase alone (lane 1); collagen alone (lane 2); and collagen mixed with collagenase (lane 3). Assay reactions containing collagen mixed with collagenase plus various concentrations of the test collagenase inhibitor compounds are then loaded on the gel starting with lane 4 (loaded in order of decreasing compound concentration).
Following electrophoresis of the samples, the gel is stained in 0.25% Coomassie Brilliant Blue overnight and destained for 8 hrs in water prior to imaging. After destaining, the gels are digitally scanned to permit quantification of the amount of undegraded collagen present in each reaction, relative to the collagen standard in lane 2.
With regards to the controls, both Type I collagen and collagenase are proteins too large to migrate very far into the SDS-PAGE gel.

Another experiment concerns the target T1, human recombinant MMP-9 (Homo sapiens, UniProt P14780).
T1 construct: purchased AnaSpec, Inc. 72009
Nature of the experiment: Human MMP-9-based anti-MMP screening assay (Sensolyte Generic MMP colorimetric kit). Type of experiment: biochemical. The settings on record: soluble human MMP-9. As for the experimental part:
Human MMP-9-based anti-MMP screening assay: This assay employed purified human recombinant MMP-9 (Cat. No. 72009) and the Sensolyte Generic MMP colorimetric assay kit (Cat. No. 72095) from AnaSpec, Inc. (San Jose, Calif., USA) for screening anti-MMP activity of compounds of interest. This assay involves incubating a constant concentration of human MMP-9 with a proprietary thiopeptide substrate and quantifying the amount of substrate cleaved by the […] in the presence and absence of different test compounds. Cleavage of the proprietary thiopeptide substrate is quantitated by evaluating color production. Reactions may be assembled in a 96-well plate. After incubation for 30 minutes at 37° C., reactions are stopped and absorption measured at 412 nm using a 96-well plate reader synergy HT (BioTek Instruments, Inc., Winooski, Vt., USA).

Values joined by “and” are separate entries in the source; they are usually repeats but may differ in a detail not shown here. Equal entries are not always repeated. Structures can show the parent of a compound that is named as a salt.

T1 sequence (P14780 94-707): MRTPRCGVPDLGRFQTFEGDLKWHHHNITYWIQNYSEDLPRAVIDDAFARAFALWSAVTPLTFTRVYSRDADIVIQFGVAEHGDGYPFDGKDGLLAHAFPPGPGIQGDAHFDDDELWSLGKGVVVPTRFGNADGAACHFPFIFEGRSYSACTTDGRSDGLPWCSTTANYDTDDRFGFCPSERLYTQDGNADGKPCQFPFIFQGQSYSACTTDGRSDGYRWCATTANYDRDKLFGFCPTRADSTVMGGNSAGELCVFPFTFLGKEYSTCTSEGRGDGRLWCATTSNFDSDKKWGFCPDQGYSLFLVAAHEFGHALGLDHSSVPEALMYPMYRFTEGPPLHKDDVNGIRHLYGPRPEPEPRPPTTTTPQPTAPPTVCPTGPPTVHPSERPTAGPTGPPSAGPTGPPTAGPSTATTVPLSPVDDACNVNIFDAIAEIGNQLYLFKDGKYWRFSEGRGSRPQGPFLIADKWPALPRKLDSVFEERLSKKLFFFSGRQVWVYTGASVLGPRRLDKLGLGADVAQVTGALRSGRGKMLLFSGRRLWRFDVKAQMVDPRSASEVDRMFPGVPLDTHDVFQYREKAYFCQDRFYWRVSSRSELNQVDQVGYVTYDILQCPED

Take `C=CC(=O)OCC[N+](C)(C)C.[Cl-]` [ATA, 2-Acryloxyethyltrimethylammonium chloride]: the “COLLAGENASE INHIBITION (%)” value in experiment [1] (inhibitor 0.5 wt %) is on record as 57%; in experiment [1] (inhibitor 1 wt %), 55%; in experiment [1] (inhibitor 4 wt %), 44%; in experiment [1] (inhibitor 8 wt %), 49%; in experiment [1] (inhibitor 16 wt %), 73%. For the same molecule, the entries for the “% MMP ACTIVITY INHIBITION (t = 30 minutes)” value (shortened to “% MMP ACTIVITY INHIBITION”) at human recombinant MMP-9 (inhibitor 10 wt %) and at human recombinant MMP-9 (inhibitor 24 wt %) were 79% and 82%, respectively.

Regarding `CC(=O)O.CC(=O)O.NC(=N\CCCCCC/N=C(N)/N=C(\N)Nc1ccc(Cl)cc1)/N=C(\N)Nc1ccc(Cl)cc1` [Chlorhexidine diacetate, chlorhexidine diacetate, reference compound], the “COLLAGENASE INHIBITION (%)” value is 1% in experiment [1] (inhibitor 0.02 wt %); “did not inhibit collagenase” in experiment [1] (inhibitor 0.02 wt %, listed as CHX); 74% in experiment [1] (inhibitor 0.2 wt %); 69% in experiment [1] (inhibitor 0.2 wt %, listed as CHX).

Consider `C=CC[N+](C)(C)CC=C.[Cl-]` [DDAC, Diallyldimethylammonium chloride], for which the “COLLAGENASE INHIBITION (%)” value in experiment [1] (inhibitor 0.5 wt %) is given as 50%; in experiment [1] (inhibitor 1 wt %) it was 56%; in experiment [1] (inhibitor 3 wt %), 59%; in experiment [1] (inhibitor 6 wt %), 66%; in experiment [1] (inhibitor 12 wt %) it was 73%. Further, the results for the “% MMP ACTIVITY INHIBITION” value at human recombinant MMP-9 (inhibitor 10 wt %) and at human recombinant MMP-9 (inhibitor 24 wt %) were 7% and 16%, respectively.

`O=C(O)CN(CCN(CC(=O)O)CC(=O)O)CC(=O)O` [EDTA, reference compound]: the inhibited collagenase in experiment [1] (inhibitor 10 mM (control lane)) was 100% and 87%.

`C=C(C)C(=O)NCCC[N+](C)(C)C.[Cl-]` [MAPTAC, [3-(Methacryloylamino)propyl]trimethylammonium chloride]: the “COLLAGENASE INHIBITION (%)” value in experiment [1] (inhibitor 0.1 wt %) turned out to be 41%; in experiment [1] (inhibitor 0.5 wt %), 39%; in experiment [1] (inhibitor 1 wt %), 53%; in experiment [1] (inhibitor 5 wt %) it was 53%; in experiment [1] (inhibitor 10 wt %), 55%. In addition, the “% MMP ACTIVITY INHIBITION” value on human recombinant MMP-9 (inhibitor 10 wt %) was determined as 6%; at human recombinant MMP-9 (inhibitor 24 wt %) it was 17%.

Consider `C=C(C)C(=O)OCC[N+](C)(C)C` [MCMS, 2-[(Methacryloyloxy)ethyl]trimethylammonium methyl sulfate], for which the “COLLAGENASE INHIBITION (%)” value in experiment [1] (inhibitor 0.5 wt %) worked out at 73%; in experiment [1] (inhibitor 1 wt %), 70%; in experiment [1] (inhibitor 4 wt %), 65%; in experiment [1] (inhibitor 8 wt %), 62%; in experiment [1] (inhibitor 16 wt %) it was 87%. Also, the figures for the “% MMP ACTIVITY INHIBITION” value on human recombinant MMP-9 (inhibitor 10 wt %) and at human recombinant MMP-9 (inhibitor 24 wt %) were 55% and 84%, respectively.

With `C=C(C)C(=O)OCC[N+](C)(C)C.[Cl-]` [METMAC, [2-(Methacryloyloxy)ethyl]trimethylammonium chloride], the “COLLAGENASE INHIBITION (%)” value in experiment [1] (inhibitor 1.3 wt %) is reported as 39%; in experiment [1] (inhibitor 6.4 wt %), 56%; in experiment [1] (inhibitor 12.9 wt %), 69%; in experiment [1] (inhibitor 25.7 wt %) it was 100%. In experiment [1] (inhibitor 12.85%), this molecule gave an inhibited collagenase of 69%. For the same molecule, the “% MMP ACTIVITY INHIBITION” value on human recombinant MMP-9 (inhibitor 10 wt %) was 42%; on human recombinant MMP-9 (inhibitor 24 wt %), 71%.

As for `Cc1c(OCC(O)C[N+](C)(C)C)cc2c(=O)c3ccccc3sc2c1C.[Cl-]` (stereo not drawn) [OTX, [3-(3,4-dimethyl-9-oxo-9H-thioxanthen-2-yloxy)-2-hydroxypropyl] trimethyl ammonium chloride], the “COLLAGENASE INHIBITION (%)” value is reported as 57% in experiment [1] (inhibitor 0.1 wt %) and 86% in experiment [1] (inhibitor 0.2 wt %).

Turning to `CCCCCCCCCCCCCCCC[N+](C)(C)C.[Br-]` [hexadecyl trimethyl ammonium bromide, reference compound], the “inhibitory activity against collagenase” value in experiment [1] (inhibitor 0.15% in ethanol) is on record as “no inhibitory activity”.

“benzalkonium chloride [reference compound]”: in experiment [1] (inhibitor 10 wt %), the “COLLAGENASE INHIBITION (%)” value is on record as “no inhibitory activity”.

For the molecule “pyridinium tribromide [reference compound]”, the “COLLAGENASE INHIBITION (%)” value in experiment [1] (inhibitor 1 wt %) was “no inhibitory activity”.
